Measurements from article PMC7397269, “Synthesis and Evaluation of New Coumarin Derivatives as Antioxidant, Antimicrobial, and Anti-Inflammatory Agents” (Molecules, 2020).
≈ marks a conversion by molar mass, not a printed value. Where “and” joins values, the source holds several entries; their conditions need not be identical. Equal values may be shown once. Read-outs that look alike come from different tables or passages of the source.

Experiments:
[1] = test system: Pseudomonas aeruginosa ATCC 27,953; assay: Agar well diffusion, P. aeruginosa; type: cell-based; conditions: ATCC27, 100 μL of 10 mg/mL in DMSO, read-out: diameter of inhibition zone, PA
Excerpt: (§1) The new molecules were individually tested for their antimicrobial activity in vitro against standard bacteria strains from the American Type Culture Collection (ATCC), namely, Staphylococcus aureus ATCC 29213, Bacillus subtilis ATCC 6633, Bacillus megaterium ATCC 9885 (Gram-positive), Escherichia coli ATCC 2592, and Pseudomonas aeruginosa ATCC 27,953 (Gram-negative). The compounds were also microbiologically tested against locally isolated Saccharomyces cerevisiae (yeast) and the standard Agricultural Research Service Culture Collection (NRRL) strain of the yeast-like pathogenic fungus Candida albicans NRRL Y-477. Primary screening was conducted using the agar well diffusion method using nutrient agar (NA) medium and Sabourand dextrose agar (SDA) medium for the tested pathological bacteria and yeast, respectively. […].
(§2) Antimicrobial tests were conducted via the agar well diffusion method using 100 μL of suspension containing 1 × 10^8 CFU/mL pathological tested bacteria and 1 × 10^6 CFU/mL yeast spread on NA and SDA, respectively. After the media cooled and solidified, wells (10 mm in diameter) were made in the solidified agar and loaded with 100 μL of the tested compound solution prepared by dissolving 10 mg of the chemical compound in 1 mL dimethyl sulfoxide (DMSO). The inoculated plates were then incubated for 24 h at 37 °C for bacteria and yeast growth. DMSO served as negative control. Ciprofloxacin (10 mg/mL) and ketoconazole (10 mg/mL) were used as standards for antibacterial and antifungal activity, respectively. After incubation, antimicrobial activity was evaluated by measuring the zone of inhibition against the test organisms and compared with that of the standard. Antimicrobial activities were expressed as the diameter of the inhibition zone (IZ) in mm. The experiment was carried out in triplicate and the average zone of inhibition was calculated.

[2] = test system: Candida albicans NRRL Y-477; assay: Agar well diffusion, C. albicans; type: cell-based; conditions: NRRLY477, 100 μL of 10 mg/mL in DMSO, read-out: diameter of inhibition zone, CA
Excerpt: as §1, §2

[3] = molecular target: T1, COX-2 (Homo sapiens, UniProt P35354); assay: COX-2 inhibition, Cayman assay kit; type: biochemical; conditions: for IC50: mean of two determinations; for SI, selectivity index (COX-1/COX-2): ratio of COX-1/COX-2 IC50
T1 construct: purchased Cayman Chemical 701080
T1 sequence (P35354 18-604): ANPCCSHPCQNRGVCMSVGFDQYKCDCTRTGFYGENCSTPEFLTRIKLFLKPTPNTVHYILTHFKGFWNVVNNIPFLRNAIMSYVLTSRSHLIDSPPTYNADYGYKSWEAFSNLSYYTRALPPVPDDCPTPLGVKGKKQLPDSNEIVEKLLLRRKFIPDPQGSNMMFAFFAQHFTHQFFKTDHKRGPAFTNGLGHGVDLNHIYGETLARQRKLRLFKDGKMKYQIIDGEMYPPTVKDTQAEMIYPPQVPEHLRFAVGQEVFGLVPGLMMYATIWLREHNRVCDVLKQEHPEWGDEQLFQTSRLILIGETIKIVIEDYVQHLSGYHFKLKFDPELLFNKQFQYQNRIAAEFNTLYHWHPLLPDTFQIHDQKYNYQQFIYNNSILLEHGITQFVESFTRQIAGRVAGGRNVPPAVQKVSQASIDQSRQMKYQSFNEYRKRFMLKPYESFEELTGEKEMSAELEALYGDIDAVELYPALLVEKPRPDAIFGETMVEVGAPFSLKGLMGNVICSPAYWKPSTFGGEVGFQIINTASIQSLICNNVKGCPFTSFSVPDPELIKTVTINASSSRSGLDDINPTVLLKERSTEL

[4] = test system: Bacillus subtilis ATCC 6633; assay: Agar well diffusion, B. subtilis; type: cell-based; conditions: ATCC6633, 100 μL of 10 mg/mL in DMSO, read-out: diameter of inhibition zone, BS
Excerpt: as §1, §2

[5] = test system: Bacillus megaterium ATCC 9885; assay: Agar well diffusion, B. megaterium; type: cell-based; conditions: Priestia megaterium, ATCC9885, 100 μL of 10 mg/mL in DMSO, read-out: diameter of inhibition zone, BM
Excerpt: as §1, §2

[6] = DPPH antioxidant assay (radical scavenging); type: biochemical; conditions: mean ± SD (n = 3)
Description: The antioxidant effects of the synthesised compounds were assessed using the 2,2-diphenyl-1-picrylhydrazyl (DPPH) antioxidant assay. Table 1 summarises the antioxidant effects of the test samples and ascorbic acid except for compound 5b because it was produced in poor yield.
The radical scavenging activity of the synthesised compounds was measured using the DPPH microplate-based method. The absorbance was measured using a microplate/cuvette reader (Spectramax M5, Molecular Devices, San Jose, CA, USA). Reference standard ascorbic acid was utilised as the positive control for this assay. Test samples were prepared at a starting concentration of 200 μg/mL after mixing with 100 μL of 0.2 mM DPPH methanolic solution. […] Samples were incubated with DPPH in the dark for 30 min at room temperature (25 °C). The methanolic DPPH solution was prepared daily and stored in a flask covered with aluminium foil. DPPH radicals have an absorption maximum (λmax) at 515 nm, at which the absorbance values were measured and converted into a percentage of antioxidant activity.
The methanolic DPPH solution without antioxidants was used as a control, and samples in methanol alone served as a background control. IC50 was determined using GraphPad Prism 7 (GraphPad Software Inc., San Diego, CA, USA). The percent inhibition was calculated using the following Equation (1):(1) % Inhibition=100−Sample Absorbance −Sample background Absorbance/DPPH only Absorbance×100
The assay was carried out in triplicate and performed as much as possible in an area protected against light. The data points are presented as the mean ± standard deviation (SD, n = 3).

[7] = test system: Saccharomyces cerevisiae local isolate; assay: Agar well diffusion, S. cerevisiae; type: cell-based; conditions: read-out: diameter of inhibition zone, SC
Excerpt: as §1, §2

[8] = test system: Staphylococcus aureus ATCC 29213; assay: Agar well diffusion, S. aureus; type: cell-based; conditions: ATCC29213, 100 μL of 10 mg/mL in DMSO, read-out: diameter of inhibition zone, SA
Excerpt: as §1, §2

[9] = test system: trypsin; assay: Proteinase-inhibitory activity; type: biochemical; conditions: 250 µg/mL; mean ± SD (n = 3)
Description: The newly synthesised compounds were individually tested for their in vitro anti-inflammatory activity against proteinase enzyme. […] This test was performed at the Pharmacology Department, Medical Research Division, National Research Centre, Cairo, Egypt. Furthermore, compounds 2–8 were evaluated for their COX1/COX2 inhibitory activities.
The test was performed according to El-Serwy et al. with minor modifications. The reaction mixture (2 mL) contained 0.06 mg trypsin, 20 mM Tris HCl buffer (pH 7.4), and 1 mL test sample (250 µg/mL for each compound). After incubating for 5 min, 1 mL of 0.8% (w/v) casein was added. The mixture was incubated for an additional 20 min. The reaction was arrested by adding 1 mL of 10% perchloric acid. The cloudy suspension was centrifuged, and the absorbance of the supernatant was read at 280 nm. Reference standard aspirin was used as the positive control. The experiment was performed in triplicate. The percent inhibition of protein denaturation was calculated using the following Equation (2):(2) % Inhibition=100−A control −A test/A control×100 where Acontrol and Atest represent the absorbance of the control reaction without and with the sample, respectively.

[10] = test system: Escherichia coli ATCC 2592; assay: Agar well diffusion, E. coli; type: cell-based; conditions: ATCC2592, 100 μL of 10 mg/mL in DMSO, read-out: diameter of inhibition zone, EC
Excerpt: as §1, §2

[11] = molecular target: T2, COX-1 (Homo sapiens, UniProt P23219); assay: COX-1 inhibition, Cayman assay kit; type: biochemical; conditions: mean of two determinations
T2 construct: purchased Cayman Chemical 701070
T2 sequence (P23219 24-599): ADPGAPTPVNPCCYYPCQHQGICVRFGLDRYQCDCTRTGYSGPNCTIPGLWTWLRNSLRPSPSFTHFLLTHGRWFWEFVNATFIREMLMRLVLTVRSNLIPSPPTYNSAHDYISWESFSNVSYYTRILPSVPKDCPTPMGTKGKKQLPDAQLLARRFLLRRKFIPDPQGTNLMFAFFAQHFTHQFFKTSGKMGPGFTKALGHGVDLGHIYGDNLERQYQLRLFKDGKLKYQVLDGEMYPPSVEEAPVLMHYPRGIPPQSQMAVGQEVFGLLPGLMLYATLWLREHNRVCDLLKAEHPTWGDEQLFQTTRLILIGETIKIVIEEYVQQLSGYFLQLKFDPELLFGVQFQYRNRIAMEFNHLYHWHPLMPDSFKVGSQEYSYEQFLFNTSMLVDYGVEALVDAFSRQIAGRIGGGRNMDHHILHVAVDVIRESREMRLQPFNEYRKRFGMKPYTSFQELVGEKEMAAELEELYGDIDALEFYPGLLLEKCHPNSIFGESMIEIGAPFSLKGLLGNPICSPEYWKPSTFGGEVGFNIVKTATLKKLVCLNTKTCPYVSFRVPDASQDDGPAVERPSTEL

[12] = test system: Candida albicans NRRL Y-477; assay: MIC, two-fold serial dilution, C. albicans; type: cell-based; conditions: NRRLY477, read-out: Minimum inhibitory concentration, CA
Excerpt: as §1
(§3) The bacteriostatic activity of the active compounds (having IZ > 16 mm) was then evaluated using the two-fold serial dilution technique. Two-fold serial dilutions of the tested compounds solutions were prepared using the proper nutrient broth to reach final concentrations of 1000, 500, 250, and 125 μg/mL. The tubes were then inoculated with the test microorganisms grown in their suitable broth at 37 °C for 24 h (1 × 10^8 CFU/mL for bacteria and 1 × 10^6 CFU/mL of yeast), 0.1 mL of the above inoculum was administered per 5 mL, and the tubes were incubated at 37 °C for 24 h. The lowest concentration showing no growth was taken as the MIC.

[13] = test system: Saccharomyces cerevisiae local isolate; assay: MIC, two-fold serial dilution, S. cerevisiae; type: cell-based; conditions: two-fold serial dilution, S. cerevisiae, read-out: Minimum inhibitory concentration, SC
Excerpt: as §1, §3

[14] = well diffusion, 100 μL of 10 mg/mL in DMSO, S. cerevisiae

Structure (SMILES)	zone of inhibition at 10000 µg/mL [1] [mm]	zone of inhibition at 10000 µg/mL [2] [mm]	IC50 [3] [µM]	SI, selectivity index (COX-1/COX-2) [3]	zone of inhibition at 10000 µg/mL [4] [mm]	zone of inhibition at 10000 µg/mL [5] [mm]	melting point [°C]	IC50 [6]	zone of inhibition at 10000 µg/mL [7] [mm]	zone of inhibition at 10000 µg/mL [8] [mm]	% Inhibition (proteinase) [9] [%]	zone of inhibition at 10000 µg/mL [10] [mm]	IC50 [11] [µM]	zone of inhibition at 10000 µg/mL [7, 14] [mm]	MIC [12] [µg/mL]	MIC [13] [µg/mL]
Cc1ccc2oc(=O)c3c(c2c1)OC(/N=C/N(C)C)=C(C#N)C3c1ccc([N+](=O)[O-])cc1 (racemic) [4a, (±)-N′-(3-cyano-9-methyl-4-(4-nitrophenyl)-5-oxo-4H,5H-pyrano[3,2-c]chromen-2-yl)-N,N-dimethylformimidamide]	< 15	< 15	7.99	1.56	< 15	< 15	279 to 281	— ((—): inactive (IC50 > 200 μg/mL))	< 15	16	31.99 ± 2.45	< 15	12.5	–	–	–
Cc1ccc2oc(=O)c3c(c2c1)OC(/N=C/N(C)C)=C(C#N)C3c1ccco1 (racemic) [4b, (±)-N′-(3-cyano-4-(furan-2-yl)-9-methyl-5-oxo-4H,5H-pyrano[3,2-c]chromen-2-yl)-N,N-dimethylformimidamide]	15	< 15	25.2	2.28	< 15	< 15	273 to 275	— ((—): inactive (IC50 > 200 μg/mL))	< 15	16	33.17 ± 2.79	15	57.5	–	–	–
Cc1ccc2oc(=O)c3c(c2c1)OC(/N=C/c1ccccc1)=C(C#N)C3c1ccco1 (racemic) [5b, (±)-2-(benzylideneamino)-4-(furan-2-yl)-9-methyl-5-oxo-4H,5H-pyrano[3,2-c]chromene-3-carbonitrile]	–	–	19.6	10.9 and 10.97	–	–	250 to 252	–	–	–	–	–	215	–	–	–
CC(=O)c1ccc(NS(=O)(=O)c2c(O)c3cc(Cl)ccc3oc2=O)cc1 [8e, N-(4-acetylphenyl)-6-chloro-4-hydroxy-2-oxo-2H-chromene-3-sulfonamide]	< 15	< 15	9.22	2.2 and 2.16	15	16	238 to 240	32.85 ± 1.322 µg/mL (≈ 83.4 µM)	–	< 15	18.5 ± 3.47	< 15	19.9	< 15	–	–
CC(=O)c1ccc(NS(=O)(=O)c2c(O)c3cc(C)ccc3oc2=O)cc1 [8f, N-(4-acetylphenyl)-4-hydroxy-6-methyl-2-oxo-2H-chromene-3-sulfonamide]	< 15	< 15	25.7	0.3 and 0.31	15	15	231 to 232	35.36 ± 3.265 µg/mL (≈ 94.7 µM)	–	16	2.0 ± 1.4	< 15	7.92	< 15	–	–
O=C1O[C@H]([C@@H](O)CO)C(O)=C1O [Ascorbic acid, reference compound]	–	–	–	–	–	–	–	2.83 ± 0.166 µg/mL (≈ 16.1 µM)	–	–	–	–	–	–	–	–
CC(=O)Oc1ccccc1C(=O)O [Aspirin, reference compound]	–	–	–	–	–	–	–	–	–	–	45.83 ± 4.21	–	–	–	–	–
CC(=O)N1CCN(c2ccc(OCC3COC(Cn4ccnc4)(c4ccc(Cl)cc4Cl)O3)cc2)CC1 (stereo not shown) [Ketoconazole, reference compound]	< 15	28	–	–	< 15	< 15	–	–	–	< 15	–	< 15	–	30	125 (≈ 235 µM)	125 (≈ 235 µM)
